Assay results as given in patent publication US8552022B2, “Substituted cyclopropyl compounds, compositions containing such compounds and methods of treatment” (Merck Sharp & Dohme Corp., priority 2009, dated 2013).

Target: T1, GPR119 (UniProt Q8TDV5, S309L, species not given)
T1 sequence (Q8TDV5 1-335 S309L): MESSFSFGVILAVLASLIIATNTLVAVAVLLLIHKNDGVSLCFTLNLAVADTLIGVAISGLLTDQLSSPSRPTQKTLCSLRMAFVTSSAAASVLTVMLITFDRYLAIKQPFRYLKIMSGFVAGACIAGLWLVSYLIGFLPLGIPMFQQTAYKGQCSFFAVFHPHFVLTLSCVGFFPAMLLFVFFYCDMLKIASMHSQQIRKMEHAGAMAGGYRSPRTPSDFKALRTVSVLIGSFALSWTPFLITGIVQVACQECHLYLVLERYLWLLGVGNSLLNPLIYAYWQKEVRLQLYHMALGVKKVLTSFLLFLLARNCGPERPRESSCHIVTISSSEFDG
Experiment: GPR119 signaling, cyclic AMP (cAMP) HTRF assay
Assay type: cell-based, human (S309L variant) or murine
Conditions: CHO cells with Gα15 and murine GPR119 or HEK293 Flp-In cells with human GPR119 S309L, read-out: EC50 (agonist activation of GPR119, cAMP)
Excerpt: The title compound was synthesized using 2-{2-[1-(5-chloropyrimidin-2-yl)piperidin-4-yl]cyclopropyl}ethyl 4-methylbenzenesulfonate from step 1 of this example by a general procedure analogous that described in Example 59. LRMS calc: 424.9; obs: 425.01 (M+1). Measurement of GPR119Signaling Using a Cyclic AMP (cAMP) Homogenous Time Resolved Fluorescence (HTRF) Assay
Chinese hamster ovary (CHO) cell lines stably transfected with the permissive guanine nucleotide binding protein alpha 15 (Gα15) and murine GPR119 were maintained in DMEM media containing FBS, penicillin-streptomycin, puromycin, and G418 (geneticin). Alternatively, human embryonic kidney (HEK)293 Flp-In cells (Invitrogen, Carlsbad, Calif.) were stably transfected with a human SNP variant (S309L) of GPR119 and maintained in DMEM media containing FBS, penicillin-streptomycin, and hygromycin. Agonist activation of the GPR119 receptor was measured in receptor transfected cells described above, treated with compounds of this invention, using a commercial homogenous time resolved fluorescence (HTRF) kit for measurement of cAMP (CisBio, Bedford, Mass.). The assay was performed in 96-well half-volume plates (murine) or 384-well plates (human) following the manufacturers instructions. Briefly, suspended cells were incubated with a dose titration of test compound at room temperature for 60 min, lysed, and incubated with HTRF reagents for an additional 60 min. The plate was read using an Envision multilabel reader (Perkin Elmer) adjusted to read time resolved fluorescence and the cAMP concentrations were extrapolated from a cAMP calibration curve. […] The concentration of test compound required to stimulate a half-maximal response (EC50), and efficacy as compared to an internal agonist control, was determined from a sigmoidal 4-parameter curve fit of the resulting plot of normalized activity versus compound concentration.

Compound	EC50
Cc1nc(C#N)cc(NCC[C@@H]2C[C@@H]2C2CCN(c3ncc(Cl)cn3)CC2)n1 (racemic) [Ex 4, rac-cis-6-[(2-{2-[1-(5-chloropyrimidin-2-yl)piperidin-4-yl]cyclopropyl}ethyl)amino]-2-methylpyrimidine-4-carbonitrile]	< 10 nM
Cc1nc(C#N)cc(NCC[C@H]2C[C@@H]2C2CCN(c3ncc(Cl)cn3)CC2)n1 (relative stereo) [Ex 61, trans 6-[(2-{2-[1-(5-chloropyrimidin-2-yl)piperidin-4-yl]cyclopropyl}ethyl)amino]-2-methylpyrimidine-4-carbonitrile]	< 10 nM
CS(=O)(=O)c1ccc(NCC[C@@H]2C[C@H]2C2CCN(c3ncc(Cl)cn3)CC2)cc1 (single isomer, unassigned) [Ex 58, trans-N-(2-{2-[1-(5-chloropyrimidin-2-yl)piperidin-4-yl]cyclopropyl}ethyl)-4-(methylsulfonyl)aniline]	50 to 200 nM
Clc1cnc(N2CCC(C3CC3CCNc3ccc(-n4cncn4)nc3)CC2)nc1 (single isomer, unassigned) [Ex 59, trans-N-(2-{2-[1-(5-chloropyrimidin-2-yl)piperidin-4-yl]cyclopropyl}ethyl)-6-1H-1,2,4-triazol-1-yl)pyridin-3-amine]	10 to 50 nM
CS(=O)(=O)c1ccc(NCC[C@@H]2C[C@H]2C2CCN(c3ncc(Cl)cn3)CC2)cc1 (single isomer, unassigned) [Ex 60, trans N-(2-{2-[1-(5-chloropyrimidin-2-yl)piperidin-4-yl]cyclopropyl}ethyl)-4-(methylsulfonyl)aniline]	50 to 200 nM
Clc1cnc(N2CCC([C@@H]3C[C@H]3CCNc3ccc(-n4cncn4)nc3)CC2)nc1 (single isomer, unassigned) [Ex 62, trans N-(2-{2-[1-(5-chloropyrimidin-2-yl)piperidin-4-yl]cyclopropyl}ethyl)-6-(1H-1,2,4-triazol-1-yl)pyridin-3-amine]	10 to 50 nM
Cc1nc(C#N)cc(NCC[C@@H]2C[C@@H]2C2CCN(c3ncc(Cl)cn3)CC2)n1 [Ex 5, 6-[(2-{(1S,2S)-2-[1-(5-chloropyrimidin-2-yl)piperidin-4-yl]cyclopropyl}ethyl)amino]-2-methylpyrimidine-4-carbonitrile]	10 to 50 nM
CS(=O)(=O)c1ccc(NCC[C@@H]2C[C@@H]2C2CCN(c3ncc(Cl)cn3)CC2)nc1 [Ex 6, N-(2-{(1S,2S)-2-[1-(5-chloropyrimidin-2-yl)piperidin-4-yl]cyclopropyl}ethyl)-5-(methylsulfonyl)pyridin-2-amine]	10 to 50 nM
CS(=O)(=O)c1ccc(NCC[C@@H]2C[C@@H]2C2CCN(c3ncc(Cl)cn3)CC2)cc1 [Ex 7, N-(2-{(1S,2S)-2-[1-(5-chloropyrimidin-2-yl)piperidin-4-yl]cyclopropyl}ethyl)-4-(methylsulfonyl)aniline]	< 10 nM
Clc1cnc(N2CCC([C@H]3C[C@H]3CCNc3ccc(-n4ccnn4)cn3)CC2)nc1 [Ex 8, N-(2-{(1S,2S)-2-[1-(5-chloropyrimidin-2-yl)piperidin-4-yl]cyclopropyl}ethyl)-5-(1H-1,2,3-triazol-1-yl)pyridin-2-amine]	< 10 nM
CN(CC[C@@H]1C[C@@H]1C1CCN(c2ncc(Cl)cn2)CC1)c1ccc(S(C)(=O)=O)cc1 [Ex 9, N-(2-{(1S,2S)-2-[1-(5-chloropyrimidin-2-yl)piperidin-4-yl]cyclopropyl}ethyl)-N-methyl-4-(methylsulfonyl)aniline]	50 to 200 nM
Clc1cnc(N2CCC([C@H]3C[C@H]3CCNc3ccc(-n4cnnn4)cc3)CC2)nc1 [Ex 10, N-(2-{(1S,2S)-2-[1-(5-chloropyrimidin-2-yl)piperidin-4-yl]cyclopropyl}ethyl)-4-(1H-tetrazol-1-yl)aniline]	< 10 nM
Clc1cnc(N2CCC([C@H]3C[C@H]3CCNc3ccc(-n4cncn4)cc3)CC2)nc1 [Ex 11, N-(2-{(1S,2S)-2-[1-(5-chloropyrimidin-2-yl)piperidin-4-yl]cyclopropyl}ethyl)-4-(1H-1,2,4-triazol-1-yl)aniline]	< 10 nM
Clc1cnc(N2CCC([C@H]3C[C@H]3CCNc3ccc(-c4ccn[nH]4)cc3)CC2)nc1 [Ex 12, N-(2-{(1S,2S)-2-[1-(5-chloropyrimidin-2-yl)piperidin-4-yl]cyclopropyl}ethyl)-4-(1H-pyrazol-5-yl)aniline]	< 10 nM
Cn1cnnc1-c1ccc(NCC[C@@H]2C[C@@H]2C2CCN(c3ncc(Cl)cn3)CC2)cc1 [Ex 13, N-(2-{(1S,2S)-2-[1-(5-chloropyrimidin-2-yl)piperidin-4-yl]cyclopropyl}ethyl)-4-(4-methyl-4H-1,2,4-triazol-3-yl)aniline]	10 to 50 nM
Clc1cnc(N2CCC([C@H]3C[C@H]3CCNc3ccc(-n4cncn4)nc3)CC2)nc1 [Ex 14, N-(2-{(1S,2S)-2-[1-(5-chloropyrimidin-2-yl)piperidin-4-yl]cyclopropyl}ethyl)-6-(1H-1,2,4-triazol-1-yl)pyridin-3-amine]	< 10 nM
Clc1cnc(N2CCC([C@H]3C[C@H]3CCNc3ccc(-n4cnnn4)nc3)CC2)nc1 [Ex 15, N-(2-{(1S,2S)-2-[1-(5-chloropyrimidin-2-yl)piperidin-4-yl]cyclopropyl}ethyl)-6-(1H-tetrazol-1-yl)pyridin-3-amine]	< 10 nM
Clc1cnc(N2CCC([C@H]3C[C@H]3CCNc3cnc(-n4cncn4)nc3)CC2)nc1 [Ex 16, N-(2-{(1S,2S)-2-[1-(5-chloropyrimidin-2-yl)piperidin-4-yl]cyclopropyl}ethyl)-2-(1H-1,2,4-triazol-1-yl)pyrimidin-5-amine]	10 to 50 nM
Cc1nnn(-c2ccc(NCC[C@@H]3C[C@@H]3C3CCN(c4ncc(Cl)cn4)CC3)cn2)n1 [Ex 17, N-(2-{(1S,2S)-2-[1-(5-chloropyrimidin-2-yl)piperidin-4-yl]cyclopropyl}ethyl)-6-(5-methyl-2H-tetrazol-2-yl)pyridin-3-amine]	< 10 nM
Cc1nnnn1-c1ccc(NCC[C@@H]2C[C@@H]2C2CCN(c3ncc(Cl)cn3)CC2)cn1 [Ex 18, N-(2-{(1S,2S)-2-[1-(5-chloropyrimidin-2-yl)piperidin-4-yl]cyclopropyl}ethyl)-6-(5-methyl-1H-tetrazol-1-yl)pyridin-3-amine]	10 to 50 nM
Clc1cnc(N2CCC([C@H]3C[C@H]3CCNc3ccc(-n4nccn4)nc3)CC2)nc1 [Ex 19, N-(2-{(1S,2S)-2-[1-(5-chloropyrimidin-2-yl)piperidin-4-yl]cyclopropyl}ethyl)-6-(2H-1,2,3-triazol-2-yl)pyridin-3-amine]	10 to 50 nM
O=C1CCCN1c1ccc(NCC[C@@H]2C[C@@H]2C2CCN(c3ncc(Cl)cn3)CC2)cn1 [Ex 20, 1-{5-[(2-{(1S,2S)-2-[1-(5-chloropyrimidin-2-yl)piperidin-4-yl]cyclopropyl}ethyl)amino]pyridin-2-yl}pyrrolidin-2-one]	10 to 50 nM
Clc1cnc(N2CCC([C@H]3C[C@H]3CCNc3ccc(-n4ccnn4)cc3)CC2)nc1 [Ex 21, N-(2-{(1S,2S)-2-[1-(5-chloropyrimidin-2-yl)piperidin-4-yl]cyclopropyl}ethyl)-4-(1H-1,2,3-triazol-1-yl)aniline]	< 10 nM
Cc1cc(NCC[C@@H]2C[C@@H]2C2CCN(c3ncc(Cl)cn3)CC2)cc(C#N)n1 [Ex 22, 4-[(2-{(1S,2S)-2-[1-(5-chloropyrimidin-2-yl)piperidin-4-yl]cyclopropyl}ethyl)amino]-6-methylpyridine-2-carbonitrile]	< 10 nM
Clc1cnc(N2CCC([C@H]3C[C@H]3CCNc3cnc(-n4cncn4)cn3)CC2)nc1 [Ex 23, N-(2-{(1S,2S)-2-[1-(5-chloropyrimidin-2-yl)piperidin-4-yl]cyclopropyl}ethyl)-5-(1H-1,2,4-triazol-1-yl)pyrazin-2-amine]	< 10 nM
Clc1cnc(N2CCC([C@H]3C[C@H]3CCNc3ccc(-n4cnnn4)cn3)CC2)nc1 [Ex 24, N-(2-{(1S,2S)-2-[1-(5-chloropyrimidin-2-yl)piperidin-4-yl]cyclopropyl}ethyl)-5-(1H-tetrazol-1-yl)pyridin-2-amine]	< 10 nM
Clc1cnc(N2CCC([C@H]3C[C@H]3CCNc3ccc(-n4cnnc4)cc3)CC2)nc1 [Ex 25, N-(2-{(1S,2S)-2-[1-(5-chloropyrimidin-2-yl)piperidin-4-yl]cyclopropyl}ethyl)-4-(4H-1,2,4-triazol-4-yl)aniline]	< 10 nM
